Consider 15 molecules from PubChem BioAssay AID248 (DTP/NCI, 2004).

Structures are written as SMILES. Where “and” joins values, the source holds several entries; their conditions need not be identical. Equal values may be shown once. Inconclusive results and toxic doses are left out.

The test system of the assay is L1210 leukemia ip in BDF1 mice, survival T/C. The assay is described as follows: NCI In Vivo Anticancer Drug Screen. Data for tumor model L1210 Leukemia (intraperitoneal) in B6D2F1 (BDF1) mice. The note with it: endpoint: mean survival time, higher = longer survival. The method, boiled down: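 In this screen, tumor-bearing mice given compound are compared to those given vehicle, and their survival values are reported as a treated-to-control quotient.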

Where [1] appears, read: dose: 100.0 mg/kg/injection, schedule: Q01DX009 (ip), vehicle: saline.
[2] abbreviates: dose: 100.0 mg/kg/injection, schedule: Q04DX002 (ip), vehicle: Klucel (hydroxypropylcellulose) (HPC).
[3] abbreviates: dose: 200.0 mg/kg/injection, schedule: Q04DX002 (ip), vehicle: Klucel (hydroxypropylcellulose) (HPC).
The mark [4] stands for this setting: dose: 400.0 mg/kg/injection, schedule: Q04DX002 (ip), vehicle: Klucel (hydroxypropylcellulose) (HPC).
[5] abbreviates: dose: 100.0 mg/kg/injection, schedule: Q04DX003 (ip), vehicle: saline with Tween-80.
The mark [6] stands for this setting: dose: 100.0 mg/kg/injection, schedule: Q04DX003 (ip), vehicle: Klucel (hydroxypropylcellulose) (HPC).

With `S=c1nc[nH]c2c1ncn2C1CCCCO1` (centres undefined), the T/C was 120 % of control (dose: 16.0 mg/kg/injection, schedule: Q01DX Z (ip), vehicle: carboxymethylcellulose (CMC)); 103 % of control (dose: 21.0 mg/kg/injection, schedule: Q01DX009 (ip), vehicle: saline); 120 % of control (dose: 36.0 mg/kg/injection, schedule: Q01DX009 (ip), vehicle: saline); 112 % of control (dose: 88.0 mg/kg/injection, schedule: Q01DX001 (ip), vehicle: saline); 124 % of control (dose: 100.0 mg/kg/injection, schedule: Q01DX001 (ip), vehicle: carboxymethylcellulose (CMC)); 118 % of control under setting [1]. The T/C (dose: 120.0 mg/kg/injection, schedule: Q01DX009 (ip), vehicle: saline) is 107 % of control; the T/C (dose: 125.0 mg/kg/injection, schedule: Q01DX Z (ip), vehicle: carboxymethylcellulose (CMC)) was 94 % of control; the T/C (dose: 133.0 mg/kg/injection, schedule: Q01DX001 (ip), vehicle: saline) is 122 % of control; the T/C (dose: 177.0 mg/kg/injection, schedule: Q01DX001 (ip), vehicle: carboxymethylcellulose (CMC)) is 155 % of control; the T/C (dose: 200.0 mg/kg/injection, schedule: Q01DX001 (ip), vehicle: saline) was 155 % of control; the T/C (dose: 267.0 mg/kg/injection, schedule: Q01DX001 (ip), vehicle: carboxymethylcellulose (CMC)) was 159 % of control. In addition, the T/C by setting is: (dose: 600.0 mg/kg/injection, schedule: Q01DX001 (ip), vehicle: carboxymethylcellulose (CMC)) 150 % of control and 156 % of control; (dose: 900.0 mg/kg/injection, schedule: Q01DX001 (ip), vehicle: carboxymethylcellulose (CMC)) 104 % of control; (dose: 1350.0 mg/kg/injection, schedule: Q01DX001 (ip), vehicle: carboxymethylcellulose (CMC)) 96 % of control.
As to `O=C(/C=C/c1ccc2c(c1)OCO2)c1cccc([N+](=O)[O-])c1`, the T/C under setting [2] is 93 % of control, the T/C under setting [3] is 104 % of control and the T/C under setting [4] was 100 % of control.
`CCCCCCCCC(N)C(=O)O` (centres undefined): the T/C runs as follows: (dose: 25.0 mg/kg/injection, schedule: Q04DX002 (ip), vehicle: gum acacia) 107 % of control; (dose: 50.0 mg/kg/injection, schedule: Q04DX002 (ip), vehicle: Klucel (hydroxypropylcellulose) (HPC)) 91 % of control; (dose: 50.0 mg/kg/injection, schedule: Q04DX002 (ip), vehicle: gum acacia) 95 % of control; under setting [2], 98 % of control; (dose: 100.0 mg/kg/injection, schedule: Q04DX002 (ip), vehicle: gum acacia) 114 % of control; under setting [3], 95 % of control.
On to `CCCCOCCCNC1=C(Cl)C(=O)c2ccccc2C1=O`, for which the T/C runs as follows: (dose: 12.5 mg/kg/injection, schedule: Q01DX001 (ip), vehicle: carboxymethylcellulose (CMC)) 92 % of control; (dose: 25.0 mg/kg/injection, schedule: Q01DX001 (ip), vehicle: carboxymethylcellulose (CMC)) 96 % of control; (dose: 50.0 mg/kg/injection, schedule: Q01DX001 (ip), vehicle: carboxymethylcellulose (CMC)) 105 % of control.
On to `Nc1ccc(P(=O)(O)c2ccc(N)cc2)cc1`, for which the T/C is 94 % of control (dose: 75.0 mg/kg/injection, schedule: Q01DX001 (ip), vehicle: carboxymethylcellulose (CMC)); 97 % of control (dose: 150.0 mg/kg/injection, schedule: Q01DX001 (ip), vehicle: carboxymethylcellulose (CMC)); 103 % of control (dose: 300.0 mg/kg/injection, schedule: Q01DX001 (ip), vehicle: carboxymethylcellulose (CMC)).
In the case of `C=CCC(Cc1cc(CC(CC=C)(C(=O)OCC)C(=O)OCC)cc(CC(CC=C)(C(=O)OCC)C(=O)OCC)c1)(C(=O)OCC)C(=O)OCC`, the T/C is 107 % of control (dose: 100.0 mg/kg/injection, schedule: Q04DX003 (ip), vehicle: acetone); 90 % of control (dose: 200.0 mg/kg/injection, schedule: Q04DX003 (ip), vehicle: acetone); 96 % of control (dose: 400.0 mg/kg/injection, schedule: Q04DX003 (ip), vehicle: acetone).
For `CN1CCC(COC(=O)C(O)(c2ccccc2)c2ccccc2)C1` (centres undefined), the T/C runs as follows: (dose: 25.0 mg/kg/injection, schedule: Q04DX003 (ip), vehicle: saline with Tween-80) 97 % of control; (dose: 50.0 mg/kg/injection, schedule: Q04DX003 (ip), vehicle: saline with Tween-80) 94 % of control; under setting [5], 101 % of control and 87 % of control.
In the case of `COC(=O)C1C2CC3c4[nH]c5cc(OC)ccc5c4CCN3CC2CC(OC2CCCCO2)C1OC` (centres undefined), the T/C (dose: 25.0 mg/kg/injection, schedule: Q04DX003 (ip), vehicle: Klucel (hydroxypropylcellulose) (HPC)) was 98 % of control; the T/C (dose: 50.0 mg/kg/injection, schedule: Q04DX003 (ip), vehicle: Klucel (hydroxypropylcellulose) (HPC)) was 100 % of control; the T/C under setting [6] was 117 % of control.
Consider `CCC(C)c1cc(CN(C)C)cc(C(C)CC)c1O` (centres undefined), for which the T/C reads like this: (dose: 12.5 mg/kg/injection, schedule: Q01DX009 (ip), vehicle: Klucel (hydroxypropylcellulose) (HPC)) 105 % of control; (dose: 25.0 mg/kg/injection, schedule: Q01DX009 (ip), vehicle: Klucel (hydroxypropylcellulose) (HPC)) 105 % of control; (dose: 50.0 mg/kg/injection, schedule: Q01DX009 (ip), vehicle: Klucel (hydroxypropylcellulose) (HPC)) 96 % of control; (dose: 100.0 mg/kg/injection, schedule: Q01DX009 (ip), vehicle: Klucel (hydroxypropylcellulose) (HPC)) 102 % of control.
For the molecule `c1ccc(Cc2ccccc2)cc1`, the T/C by setting is: under setting [2], 101 % of control; under setting [3], 105 % of control; under setting [4], 92 % of control.
As to `CCCCCCCCCCCCC(CCCCCCCCCCCC)c1ccccc1`, the T/C (dose: 100.0 mg/kg/injection, schedule: Q01DX001 (ip), vehicle: Klucel (hydroxypropylcellulose) (HPC)) is 112 % of control; the T/C (dose: 200.0 mg/kg/injection, schedule: Q01DX001 (ip), vehicle: Klucel (hydroxypropylcellulose) (HPC)) was 100 % of control; the T/C (dose: 400.0 mg/kg/injection, schedule: Q01DX001 (ip), vehicle: Klucel (hydroxypropylcellulose) (HPC)) is 96 % of control.
As for `CCOC(=O)/C(=C\c1ccccn1)C(=O)c1cccnc1`, the T/C was 102 % of control under setting [6]; 105 % of control (dose: 200.0 mg/kg/injection, schedule: Q04DX003 (ip), vehicle: Klucel (hydroxypropylcellulose) (HPC)); 118 % of control (dose: 400.0 mg/kg/injection, schedule: Q04DX003 (ip), vehicle: Klucel (hydroxypropylcellulose) (HPC)).
Take `C=[CH][Sn]([c]1ccccc1)([c]1ccccc1)[c]1ccccc1`: the T/C was 92 % of control and 104 % of control and 109 % of control (dose: 50.0 mg/kg/injection, schedule: Q01DX009 (ip), vehicle: saline); 106 % of control and 114 % of control and 89 % of control under setting [1]; 96 % of control and 101 % of control (2×) (dose: 200.0 mg/kg/injection, schedule: Q01DX009 (ip), vehicle: saline).
Consider `COC(=O)NC1C(C)C=CC(C)C1I` (centres undefined), for which the T/C reads like this: (dose: 100.0 mg/kg/injection, schedule: Q01DX009 (ip), vehicle: other) 109 % of control; under setting [5], 104 % of control; (dose: 200.0 mg/kg/injection, schedule: Q01DX009 (ip), vehicle: other) 96 % of control; (dose: 200.0 mg/kg/injection, schedule: Q04DX003 (ip), vehicle: saline with Tween-80) 98 % of control; (dose: 400.0 mg/kg/injection, schedule: Q01DX009 (ip), vehicle: other) 113 % of control; (dose: 400.0 mg/kg/injection, schedule: Q04DX003 (ip), vehicle: saline with Tween-80) 97 % of control.
In the case of `Cc1cccc(NC(=S)N(C)C)c1`, the T/C is, setting by setting: (dose: 100.0 mg/kg/injection, schedule: Q01DX009 (ip), vehicle: saline with Tween-80) 99 % of control; (dose: 200.0 mg/kg/injection, schedule: Q01DX009 (ip), vehicle: saline with Tween-80) 101 % of control; (dose: 400.0 mg/kg/injection, schedule: Q01DX009 (ip), vehicle: saline with Tween-80) 94 % of control.
